According to ChEMBL document CHEMBL1201862, “PubChem BioAssay data set” (2004):
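Compound exposure: 48 hours, 5 concentrations, 96-well plates. The concentration for 50% growth inhibition is given as GI50.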 Calls of active or inactive are those of the source. Cut-off read from the data, not from the text of the source: active = GI50 up to about 1.1 µM and inactive = higher.

Key:
Test in all cases: NCI tumour cell line growth inhibition, 48 h
786-0 = system: 786-0
A549 = system: A549
BT-549 = system: BT-549
DU-145 = system: DU-145
HOP-62 = system: HOP-62
HT-29 = system: HT-29
Hs-578T = system: Hs-578T
LOX IMVI = system: LOX IMVI
NCI-H23 = system: NCI-H23
NCI-H460 = system: NCI-H460
OVCAR-3 = system: OVCAR-3
SF-268 = system: SF-268
SK-MEL-28 = system: SK-MEL-28
SK-MEL-2 = system: SK-MEL-2
SK-MEL-5 = system: SK-MEL-5
SNB-75 = system: SNB-75
OVCAR-8 = system: OVCAR-8
RXF 393 = system: RXF 393
SN12C = system: SN12C
HOP-92 = system: HOP-92

Compound	GI50 (786-0)	GI50 (A549)	GI50 (BT-549)	GI50 (DU-145)	GI50 (HOP-62)	GI50 (HT-29)	GI50 (Hs-578T)	GI50 (LOX IMVI)	GI50 (NCI-H23)	GI50 (NCI-H460)	GI50 (OVCAR-3)	GI50 (SF-268)	GI50 (SK-MEL-28)	GI50 (SK-MEL-2)	GI50 (SK-MEL-5)	GI50 (SNB-75)	GI50 (OVCAR-8)	GI50 (RXF 393)	GI50 (SN12C)	GI50 (HOP-92)
CSC1(CC(=O)N(C)C)C(=O)Nc2ccccc21 (centres undefined)	> 100 µM (inactive)	> 100 µM (inactive)	> 100 µM (inactive)	> 100 µM (inactive)	> 100 µM (inactive)	> 100 µM (inactive)	> 100 µM (inactive)	> 100 µM (inactive)	> 100 µM (inactive)	> 100 µM (inactive)	> 100 µM (inactive)	> 100 µM (inactive)	> 100 µM (inactive)	> 100 µM (inactive)	> 100 µM (inactive)	> 100 µM (inactive)				
COc1cc(OC)c2nc(C)c(CCCl)c(Cl)c2c1	> 100 µM (inactive)	> 100 µM (inactive)	> 100 µM (inactive)	> 100 µM (inactive)	> 100 µM (inactive)	> 100 µM (inactive)	> 100 µM (inactive)	> 100 µM (inactive)	> 100 µM (inactive)	> 100 µM (inactive)	> 100 µM (inactive)	> 100 µM (inactive)	> 100 µM (inactive)	> 100 µM (inactive)	> 10 µM (inactive)	> 100 µM (inactive)	> 100 µM (inactive)	> 100 µM (inactive)	> 100 µM (inactive)	
COc1ccc(-c2cc(-c3ccccc3)nc(N)c2-c2ccc3ccccc3c2)cc1	1.73 µM (inactive)	2.21 µM (inactive)	1.64 µM (inactive)		2.3 µM (inactive)	1 µM (active)	1.65 µM (inactive)	1.72 µM (inactive)	1.86 µM (inactive)	1.52 µM (inactive)	2.47 µM (inactive)	3.3 µM (inactive)	1.95 µM (inactive)	1.82 µM (inactive)	1.77 µM (inactive)	2.3 µM (inactive)	1.66 µM (inactive)	1.82 µM (inactive)	1.86 µM (inactive)	1.5 µM (inactive)
COc1cc2nc(-c3cccs3)nc(N3CCN(c4ccccc4)CC3)c2cc1OC	> 100 µM (inactive)	> 100 µM (inactive)	> 100 µM (inactive)	> 100 µM (inactive)	> 100 µM (inactive)	> 100 µM (inactive)	> 100 µM (inactive)	> 100 µM (inactive)	> 100 µM (inactive)	> 100 µM (inactive)	> 100 µM (inactive)	> 100 µM (inactive)	> 100 µM (inactive)	> 100 µM (inactive)	> 100 µM (inactive)	> 100 µM (inactive)	> 100 µM (inactive)		> 100 µM (inactive)	> 100 µM (inactive)
CN(NC(=O)c1cccs1)C1=NCCCCN1	> 100 µM (inactive)	> 100 µM (inactive)	> 100 µM (inactive)		> 100 µM (inactive)	> 100 µM (inactive)	> 100 µM (inactive)	> 100 µM (inactive)	> 100 µM (inactive)	> 100 µM (inactive)	> 100 µM (inactive)	> 100 µM (inactive)	> 100 µM (inactive)	> 100 µM (inactive)	> 100 µM (inactive)	> 100 µM (inactive)	> 100 µM (inactive)	> 100 µM (inactive)		> 100 µM (inactive)
CCOC(=O)c1nc2cc(F)cc(F)c2[nH]c1=O	> 100 µM (inactive)	> 100 µM (inactive)	> 100 µM (inactive)	> 100 µM (inactive)	> 100 µM (inactive)	> 100 µM (inactive)	> 100 µM (inactive)	> 100 µM (inactive)	> 100 µM (inactive)	> 100 µM (inactive)	> 100 µM (inactive)	> 100 µM (inactive)	> 100 µM (inactive)	> 100 µM (inactive)	> 100 µM (inactive)	> 100 µM (inactive)	> 100 µM (inactive)		> 100 µM (inactive)	> 100 µM (inactive)
CCCC1NC(C#N)(C#N)C(CCC)NC1(C#N)C#N (centres undefined)	0.0326 µM (active)	14.3 µM (inactive)	1.12 µM (inactive)	3.78 µM (inactive)	35.8 µM (inactive)	0.115 µM (active)	3.07 µM (inactive)	0.105 µM (active)	2.49 µM (inactive)	14 µM (inactive)	0.076 µM (active)	1.31 µM (inactive)	44.9 µM (inactive)	52.1 µM (inactive)	1.44 µM (inactive)	2.17 µM (inactive)	0.149 µM (active)		1.11 µM (active)	0.488 µM (active)
